According to patent US6531496B1 (Bayer Aktiengesellschaft, priority 1999, dated 2003):
Converted amounts (≈) assume the structure as drawn.

How the values were obtained:
[1] = tested on: Penicillium brevicaule; assay: Minimum inhibitory concentration on malt extract agar; type: cell-based; conditions: 2 weeks at 28° C.; for MIC: Penicillium, 336 h, read-out: Minimum inhibitory concentrations Penicillium brevicaule
Protocol: (§1) To confirm the activity against fungi (Penicillium brevicaule, Chaetomium globosum, Aspergillus Niger), the minimum inhibitory concentrations (MICs) of agents according to the invention are determined:
(§2) Active compounds according to the invention are added in concentrations of from 0.1 mg/l to 5 000 mg/l to an agar prepared using malt extract. […] The MIC is the lowest concentration of active compound at which no growth whatsoever by the microbial species used occurs; it is indicated in the table which follows.

[2] = tested on: Aspergillus Niger; assay: as above; type: cell-based; conditions: 2 weeks at 28° C.
Protocol: as §1, §2

[3] = tested on: Chaetomium globosum; assay: as above; type: cell-based; conditions: 2 weeks at 28° C.
Protocol: as §1, §2

[4] = logP by HPLC (EEC Directive 79/831 Annex V. A8, gradient method); type: physicochemical
[5] = tested on: Venturia inaequalis; assay: Venturia test (apple)/protective; type: in vivo; conditions: 288 h, protective, evaluated 12 days after inoculation, read-out: Efficacy in %
Protocol: (§3) Venturia Test (Apple)/Protective Solvent: 47 parts by weight of acetone Emulsifier: 3 parts by weight of alkylaryl polyglycol ether To prepare a suitable active compound preparation, 1 part by weight of active compound is mixed with the stated amounts of solvent and emulsifier, and the concentrate is diluted with water to the desired concentration. To test for protective activity, young plants are sprayed with the active compound preparation at the application rate stated. After the spray coating has dried on, the plants are inoculated with an aqueous conidial suspension of the apple scab pathogen Venturia inaequalis and then remain for 1 day in an incubation cabinet at approx. 20° C. and 100% relative atmospheric humidity.

[6] = tested on: Plasmopara viticola; assay: Plasmopara test (grapevine)/protective; type: in vivo; conditions: 144 h, protective, evaluated 6 days after inoculation, read-out: Efficacy in %
Protocol: as §3, with “Plasmopara” for “Venturia”, “(Grapevine)/Protective” for “(Apple)/Protective”, “spore” for “conidial”, “Plasmopara viticola” for “the apple scab pathogen Venturia inaequalis”, “a” for “100%”, “humidity of 100%. […] The plants are then moistened and placed in an incubation cabinet for 1 day.” for “humidity.”

[7] = tested on: green peach aphid (Myzus persicae); assay: Myzus test; type: in vivo; conditions: active compound concentration 0.01%
Protocol: Solvent: 6 parts by weight of dimethylformamide
67 parts by weight of methanol
Emulsifier: 2 parts by weight of alkylaryl polyglcol ether
To prepare a suitable active compound preparation, 1 part by weight of active compound is mixed with the stated amount of solvent and the stated amount of emulsifier, and the concentrate is diluted with emulsifier-containing water to the desired concentrations.
Field bean (Vicia faba) seedlings which are infested with the green peach aphid (Myzus persicae) are immersed into an active compound preparation of the desired concentration and placed into a plastic box.
After the desired period of time, the destruction is determined in %. 100% means that all the animals have been killed; 0% means that none of the animals have been killed.

[8] = tested on: greenhouse red spider mite (Tetranychus urticae); assay: Tetranychus test (OP-resistant/immersion treatment); type: in vivo; conditions: active compound concentration 0.01%
Protocol: Tetranychus Test (OP-resistant/Immersion Treatment)
Solvent: 3 parts by weight of dimethylformamide
Emulsifier: 1 part by weight of alkylaryl polyglycol ether
To prepare a suitable active compound preparation, 1 part by weight of active compound is mixed with the stated amount of solvent and the stated amount of emulsifier, and the concentrate is diluted with water to the desired concentrations.
Bean plants (Phaseolus vulgaris) which are severely infested by all stages of the greenhouse red spider mite (Tetranychus urticae) are immersed into an active compound preparation of the desired concentration.
After the desired time, the efficacy is determined in %. 100% means that all the spider mites have been killed; 0% means that none of the spider mites have been killed.

[9] = gradient of acetonitrile/0.1% aqueous phosphoric acid, HPLC, gradient method, acetonitrile/0.1% aqueous phosphoric acid, Table 1
[10] = HPLC, gradient method, acetonitrile/0.1% aqueous phosphoric acid, Table 1
[11] = Table 3, intermediates of formula (II-a)

SMILES	chromatographic logP [4, 9]	pest or weed control at 250 g/ha [5] [%]	pest or weed control at 250 g/ha [6] [%]	also measured
Cc1cc(Cl)cc(OC2=NS(=O)(=O)CS2)c1 [Example 92]	–	–	–	Minimum inhibitory concentrations Penicillium brevicaule [1]: 20 ppm; Minimum inhibitory concentrations Aspergillus Niger [2]: 100 ppm; Minimum inhibitory concentrations Chaetomium globosum [3]: 100 ppm
CC(C)(C)c1cccc(OC2=NS(=O)(=O)CS2)c1 [Example 114]	3.27	≥ 90	–	–
CO/N=C(/c1ccccc1)c1cccc(OC2=NS(=O)(=O)CS2)c1 [Example 41]	3.28	–	≥ 90	–
C/C(=N/OC(C)(C)C)c1cccc(OC2=NS(=O)(=O)CS2)c1 [Example 28]	3.94	≥ 90	≥ 90	–
CC(=O)c1cccc(OC2=NS(=O)(=O)CS2)c1 [Example 40]	1.73	≥ 90	≥ 90	Destruction in % after 6^d [7]: 90%
C=CCO/N=C(/c1ccccc1)c1cccc(OC2=NS(=O)(=O)CS2)c1 [Example 42]	3.72	–	≥ 90	–
Cc1ccc(Cl)c(OC2=NS(=O)(=O)CS2)c1 [Example 115]	2.62	≥ 90	–	–
Cc1cc(Cl)cc(OC2=NS(=O)(=O)CS2)c1 [Example 1, 3-(3-chloro-5-methylphenoxy)-1λ^6,4,2-dithiazole-1,1(5H)-dione]	–	≥ 90	≥ 90	MIC [1]: 10 to 100 µg/mL (≈ 36 to 360 µM)
O=S1(=O)CSC(Oc2ccccc2F)=N1 [Example 110]	2.02	≥ 90	–	–
O=S1(=O)CSC(Oc2ccccc2Cl)=N1 [Example 95]	–	≥ 90	≥ 90	–
Cc1cccc(OC2=NS(=O)(=O)CS2)c1 [Example 106]	–	≥ 90	≥ 90	–
CC(=O)c1ccc(OC2=NS(=O)(=O)CS2)cc1 [Example 21]	1.69	–	≥ 90	–
O=S1(=O)CSC(Oc2ccc(Cl)cc2Cc2ccccc2)=N1 [Example 99]	–	–	≥ 90	–
O=S1(=O)CSC(Oc2ccccc2)=N1 [Example 1]	–	–	–	MIC [1]: 100 µg/mL (≈ 436 µM); MIC ([2]; Aspergillus niger, 336 h, read-out: Minimum inhibitory concentrations Aspergillus Niger): 100 µg/mL (≈ 436 µM); MIC ([3]; Chaetomium globosum, 336 h, read-out: Minimum inhibitory concentrations Chaetomium globosum): 100 µg/mL (≈ 436 µM)
C/C(=N/OCc1ccccc1)c1ccc(OC2=NS(=O)(=O)CS2)cc1 [Example 22]	3.67	–	–	Destruction in % after 6^d [7]: 100%
O=S1(=O)CSC(Oc2cccc(Cl)c2)=N1 [Example 94]	–	≥ 90	–	Minimum inhibitory concentrations Penicillium brevicaule [1]: 20 ppm; MIC [1]: 10 to 100 µg/mL (≈ 37.9 to 379 µM); Minimum inhibitory concentrations Aspergillus Niger [2]: 100 ppm; Minimum inhibitory concentrations Chaetomium globosum [3]: 100 ppm
O=S1(=O)CSC(Oc2c(Cl)cccc2Cl)=N1 [Example 102]	–	–	≥ 90	–
O=S1(=O)CSC(Oc2cccc(Cl)c2Cl)=N1 [Example 101]	–	≥ 90	≥ 90	–
O=S1(=O)CSC(Oc2ccc(Cl)cc2Cl)=N1 [Example 96]	–	≥ 90	≥ 90	–
Cc1ccc(OC2=NS(=O)(=O)CS2)cc1 [Example 105]	–	≥ 90	≥ 90	–
C/C(=N/OC(C)(C)C)c1ccc(OC2=NS(=O)(=O)CS2)cc1 [Example 24]	3.98	≥ 90	–	–
O=S1(=O)CSC(Oc2ccc(Cl)cc2)=N1 [Example 93]	–	–	–	Minimum inhibitory concentrations Penicillium brevicaule [1]: 20 ppm; MIC [1]: 10 to 100 µg/mL (≈ 37.9 to 379 µM); Minimum inhibitory concentrations Aspergillus Niger [2]: 100 ppm; Minimum inhibitory concentrations Chaetomium globosum [3]: 50 ppm
O=S1(=O)CSC(Oc2cccc(Br)c2)=N1 [Example 119]	2.47	–	≥ 90	–
O=C(c1ccc(OC2=NS(=O)(=O)CS2)cc1)c1ccc(-c2ccccc2)cc1 [Example 70]	–	–	–	logP [4, 10]: 3.72
O=S1(=O)CC(c2ccccc2)SC(Cl)=N1 (stereo not drawn) [II-a-1]	–	–	–	chromatographic logP [4, 11]: 2.63
CC(=NOCc1ccccc1)c1ccc(OC2=NS(=O)(=O)CS2)c(C)c1 [Example 18]	–	–	–	logP [4, 10]: 3.92

SMILES	chromatographic logP [4, 9]	pest or weed control at 250 g/ha [5] [%]	pest or weed control at 250 g/ha [6] [%]	also measured
COC(=O)c1ccc(N=Cc2cccc(OC3=NS(=O)(=O)CS3)c2)cc1 [Example 76]	–	–	–	logP [4, 10]: 1.61
CC(O)c1cccc(OC2=NS(=O)(=O)CS2)c1 (racemic) [Example 80]	–	–	–	logP [4, 10]: 1.48
CO/N=C(/C)c1ccc(OC2=NS(=O)(=O)CS2)cc1 [Example 20]	2.62	–	–	Destruction in % after 7^h ([8]; after 7^h): 95%; destruction after 7 days ([8]; after 7 days): 95%
Cc1ccc(C)c(OC2=NS(=O)(=O)CS2)c1 [Example 125]	–	–	–	logP [4, 10]: 2.63
CON=C(C)c1ccc(OC2=NS(=O)(=O)CS2)c(C)c1 [Example 16]	–	–	–	logP [4, 10]: 2.88
O=S1(=O)CSC(Oc2cccc(OCCO)c2)=N1 [Example 91]	–	–	–	logP [4, 10]: 1.37
N#Cc1cccc(OC2=NS(=O)(=O)CS2)c1 [Example 109]	–	–	–	logP [4, 10]: 1.69
O=[N+]([O-])c1ccccc1OC1=NS(=O)(=O)CS1 [Example 128]	1.84	–	≥ 90	–
O=S1(=O)CSC(Oc2ccc3oc(=S)sc3c2)=N1 [Example 141]	–	≥ 90	≥ 90	chromatographic logP ([4]; Table 2): 2.64
O=S1(=O)CSC(Oc2ccc(F)cc2)=N1 [Example 112]	–	–	–	logP [4, 10]: 2.04
Cc1ccc(OC2=NS(=O)(=O)CS2)c(C)c1 [Example 127]	2.65	–	–	–
O=S1(=O)CSC(Oc2cccc(F)c2)=N1 [Example 111]	2.05	≥ 90	–	–
CN=Cc1ccc(OC2=NS(=O)(=O)CS2)cc1 [Example 53]	–	–	–	logP [4, 10]: 2.33
O=S1(=O)CSC(Oc2ccc(Cl)c(Cl)c2)=N1 [Example 100]	–	≥ 90	≥ 90	Minimum inhibitory concentrations Penicillium brevicaule [1]: 20 ppm; MIC [1]: 10 to 100 µg/mL (≈ 33.5 to 335 µM); Minimum inhibitory concentrations Aspergillus Niger [2]: 100 ppm; Minimum inhibitory concentrations Chaetomium globosum [3]: 50 ppm
O=S1(=O)CSC(Oc2ccccc2Br)=N1 [Example 108]	2.3	≥ 90	–	–
CSC1=NS(=O)(=O)CC(C)(c2ccccc2)S1 (stereo not drawn) [IV-5]	–	–	–	chromatographic logP ([4]; Table 4, starting materials of formula (IV)): 2.65
O=C(c1ccccc1)c1cccc(OC2=NS(=O)(=O)CS2)c1 [Example 27]	2.66	≥ 90	≥ 90	–
CC(C)(C)ON=C(c1ccccc1)c1cccc(OC2=NS(=O)(=O)CS2)c1 [Example 43]	–	–	–	logP [4, 10]: 4.4
CON=C(C1=NOCCO1)c1ccccc1OC1=NS(=O)(=O)CS1 [Example 4]	–	–	–	logP [4, 10]: 1.77
Cc1cc(OC2=NS(=O)(=O)CS2)ccc1SC(F)(F)F [Example 52]	–	–	–	logP [4, 10]: 3.39
O=S1(=O)CSC(Oc2ccccc2OC(F)(F)F)=N1 [Example 133]	2.63	≥ 90	–	–
CC(C)(C)c1ccc(OC2=NS(=O)(=O)CS2)cc1 [Example 98]	–	–	≥ 90	–
O=[N+]([O-])c1ccc(Sc2ccc(OC3=NS(=O)(=O)CS3)cc2)cc1 [Example 121]	–	–	–	logP [4, 10]: 3.28
O=S1(=O)CSC(Oc2cccc3sc4ccccc4c23)=N1 [Example 153]	–	–	–	chromatographic logP ([4]; Table 2): 3.31
CC1(c2ccccc2)CS(=O)(=O)N=C(Cl)S1 (stereo not drawn) [II-a-2]	–	–	–	chromatographic logP [4, 11]: 2.75
Cc1cc(OC2=NS(=O)(=O)CS2)ccc1N [Example 137]	–	–	–	logP [4, 10]: 0.83
